Values joined by “and” are separate entries in the source; they are usually repeats but may differ in a detail not shown here. Equal values may be shown once. Inconclusive results and toxic doses are left out. Cut-off read from the data, not from the text of the source: active = T/C of 150% or more; inactive = T/C below 125%. Square brackets hold non-standard residues; d marks the D form. Peptide text beside a SMILES is read from it. * marks the point of attachment. ξ: configuration not given here. Cbz = O=C(OCc1ccccc1)*; ξV = CC(C)C(N)C(=O)O
Tested on: L1210 leukemia ip in BDF1 mice, survival T/C
Test: NCI In Vivo Anticancer Drug Screen. Data for tumor model L1210 Leukemia (intraperitoneal) in B6D2F1 (BDF1) mice
Settings: endpoint: mean survival time, higher = longer survival
How it was run: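 Antitumor effect is assessed in tumor-bearing animals. Survival in the compound arm is compared with a vehicle-dosed control arm and expressed as their quotient.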

[1] = dose: 100.0 mg/kg/injection, schedule: Q04DX003 (ip), vehicle: Klucel (hydroxypropylcellulose) (HPC)
[2] = dose: 200.0 mg/kg/injection, schedule: Q04DX003 (ip), vehicle: Klucel (hydroxypropylcellulose) (HPC)
[3] = dose: 400.0 mg/kg/injection, schedule: Q04DX003 (ip), vehicle: Klucel (hydroxypropylcellulose) (HPC)
[4] = dose: 100.0 mg/kg/injection, schedule: Q04DX002 (ip), vehicle: saline
[5] = dose: 200.0 mg/kg/injection, schedule: Q04DX002 (ip), vehicle: saline
[6] = dose: 400.0 mg/kg/injection, schedule: Q04DX002 (ip), vehicle: saline
[7] = dose: 100.0 mg/kg/injection, schedule: Q01DX009 (ip), vehicle: saline with Tween-80
[8] = dose: 100.0 mg/kg/injection, schedule: Q04DX003 (ip), vehicle: saline with Tween-80
[9] = dose: 200.0 mg/kg/injection, schedule: Q01DX009 (ip), vehicle: saline with Tween-80
[10] = dose: 200.0 mg/kg/injection, schedule: Q04DX003 (ip), vehicle: saline with Tween-80
[11] = dose: 400.0 mg/kg/injection, schedule: Q01DX009 (ip), vehicle: saline with Tween-80
[12] = dose: 400.0 mg/kg/injection, schedule: Q04DX003 (ip), vehicle: saline with Tween-80
[13] = dose: 100.0 mg/kg/injection, schedule: Q01DX001 (ip), vehicle: Klucel (hydroxypropylcellulose) (HPC)
[14] = dose: 200.0 mg/kg/injection, schedule: Q01DX001 (ip), vehicle: Klucel (hydroxypropylcellulose) (HPC)
[15] = dose: 100.0 mg/kg/injection, schedule: Q01DX009 (ip), vehicle: Klucel (hydroxypropylcellulose) (HPC)
[16] = dose: 200.0 mg/kg/injection, schedule: Q01DX009 (ip), vehicle: Klucel (hydroxypropylcellulose) (HPC)
[17] = dose: 100.0 mg/kg/injection, schedule: Q04DX002 (ip), vehicle: Klucel (hydroxypropylcellulose) (HPC)
[18] = dose: 200.0 mg/kg/injection, schedule: Q04DX002 (ip), vehicle: Klucel (hydroxypropylcellulose) (HPC)
[19] = dose: 400.0 mg/kg/injection, schedule: Q04DX002 (ip), vehicle: Klucel (hydroxypropylcellulose) (HPC)

Measured: T/C

Cn1nc([N+](=O)[O-])sc1=N
inactive: [1] 98 % of control | [2] 98 % of control | [3] 101 % of control

O=C([O-])CO.[Co+3].[NH2-].[NH2-].[NH2-].[NH2-].[NH2-].[O-][Cl+3]([O-])([O-])O
inactive: [4] 103 % of control | [5] 100 % of control | [6] 103 % of control

NC(=O)c1nc2n(c1N)CCC2
inactive: [7] 108 % of control | [8] 97 % of control | [9] 110 % of control | [10] 100 % of control | [11] 105 % of control | [12] 94 % of control

N#C/C(=C1C=C(Br)/C(=N\O)C=C\1Cl)c1cccc2ccccc12
inactive: [7] 98 % of control | [8] 95 % of control | [9] 93 % of control | [10] 90 % of control | [11] 94 % of control | [12] 104 % of control

CCOC(=O)NC#N (tested in a mixture with another compound)
inactive: dose: 10.0 mg/kg/injection, schedule: Q01DX001 (ip), vehicle: saline 98 % of control | dose: 20.0 mg/kg/injection, schedule: Q01DX001 (ip), vehicle: saline 102 % of control | dose: 40.0 mg/kg/injection, schedule: Q01DX001 (ip), vehicle: saline 102 % of control

CC(C)N(C=O)c1ccc(C(=O)O)cc1
inactive: [13] 93 % of control | [1] 108 % of control | [14] 93 % of control | [2] 97 % of control | dose: 400.0 mg/kg/injection, schedule: Q01DX001 (ip), vehicle: Klucel (hydroxypropylcellulose) (HPC) 86 % of control | [3] 89 % of control

COC(=O)C(NC(=O)CNC(=O)CNC(=O)OCc1ccccc1)C(C)C (stereo not drawn) (Cbz-Gly-Gly-[ξV]-OMe)
inactive: [1] 96 % of control | [2] 99 % of control | [3] 92 % of control

COc1cc([N+](=O)[O-])ccc1NC(=O)Oc1ccc(NC(C)=O)cc1
inactive: [15] 101 % of control | [16] 106 % of control | dose: 400.0 mg/kg/injection, schedule: Q01DX009 (ip), vehicle: Klucel (hydroxypropylcellulose) (HPC) 91 % of control

CSc1cc(N)nc2n[nH]nc12
inactive: [13] 97 % of control | [14] 110 % of control

Cc1cc2nc(C(O)C(O)C(O)C(O)c3nc4cc(C)c(C)cc4[nH]3)[nH]c2cc1C (stereo unspecified)
inactive: dose: 100.0 mg/kg/injection, schedule: Q01DX001 (ip), vehicle: other 98 % of control | dose: 200.0 mg/kg/injection, schedule: Q01DX001 (ip), vehicle: other 87 % of control | dose: 400.0 mg/kg/injection, schedule: Q01DX001 (ip), vehicle: other 104 % of control

Nc1nc(N)c2nnn(C3CC(O)C(CO)C3)c2n1 (stereo unspecified)
inactive: dose: 50.0 mg/kg/injection, schedule: Q01DX009 (ip), vehicle: saline with Tween-80 89 % of control | [7] 96 % of control | [9] 92 % of control

CNC(=S)N(C)N=O
inactive: dose: 100.0 mg/kg/injection, schedule: Q01DX Z (ip), vehicle: methylcellulose (MC) 97 % of control | dose: 200.0 mg/kg/injection, schedule: Q01DX Z (ip), vehicle: methylcellulose (MC) 120 % of control

N#CCCN(Cc1ccccc1)C(=S)Nc1ccc(C(F)(F)F)cc1
inactive: [17] 100 % of control | [18] 100 % of control | [19] 100 % of control

C1=NC(c2ccccc2)=CN(C2CCCCCCC2)C1(c1ccccc1)C1CCCCCCC1 (stereo unspecified)
inactive: dose: 50.0 mg/kg/injection, schedule: Q04DX002 (ip), vehicle: saline 99 % of control | [17] 95 % of control | [4] 99 % of control | [18] 92 % of control | [19] 92 % of control

Cc1ccc(C(=O)[O][Hg][CH2]C2COC([CH2][Hg][O]C(=O)c3ccc(C)cc3)CO2)cc1 (stereo unspecified)
inactive: dose: 3.12 mg/kg/injection, schedule: Q01DX009 (ip), vehicle: Klucel (hydroxypropylcellulose) (HPC) 93 % of control | dose: 6.25 mg/kg/injection, schedule: Q01DX009 (ip), vehicle: Klucel (hydroxypropylcellulose) (HPC) 93 % of control | dose: 6.25 mg/kg/injection, schedule: Q01DX009 (ip), vehicle: saline with Tween-80 113 % of control | dose: 12.5 mg/kg/injection, schedule: Q01DX009 (ip), vehicle: Klucel (hydroxypropylcellulose) (HPC) 94 % of control | dose: 12.5 mg/kg/injection, schedule: Q01DX009 (ip), vehicle: saline with Tween-80 100 % of control | dose: 25.0 mg/kg/injection, schedule: Q01DX009 (ip), vehicle: saline with Tween-80 105 % of control | dose: 25.0 mg/kg/injection, schedule: Q04DX003 (ip), vehicle: other 92 % of control | dose: 50.0 mg/kg/injection, schedule: Q04DX003 (ip), vehicle: other 90 % of control | dose: 100.0 mg/kg/injection, schedule: Q04DX003 (ip), vehicle: other 95 % of control

CC(=O)NNC(=O)c1ccncc1
inactive: dose: 100.0 mg/kg/injection, schedule: Q01DX001 (ip), vehicle: water 93 % of control | dose: 100.0 mg/kg/injection, schedule: Q01DX009 (ip), vehicle: water 101 % of control | dose: 200.0 mg/kg/injection, schedule: Q01DX001 (ip), vehicle: water 98 % of control | dose: 200.0 mg/kg/injection, schedule: Q01DX009 (ip), vehicle: water 106 % of control and 110 % of control | dose: 400.0 mg/kg/injection, schedule: Q01DX001 (ip), vehicle: water 102 % of control | dose: 600.0 mg/kg/injection, schedule: Q01DX009 (ip), vehicle: water 122 % of control | dose: 800.0 mg/kg/injection, schedule: Q01DX009 (ip), vehicle: water 97 % of control

CN(C)C(=O)Sc1ccc([N+](=O)[O-])cc1Cl
inactive: [1] 107 % of control | [2] 101 % of control | [3] 101 % of control

C/C=C/C=C/COC(=O)C=C(C)C
inactive: [4] 107 % of control | [5] 101 % of control | [6] 107 % of control

O=C(O)COc1c(Br)cc(Br)cc1Br
inactive: dose: 50.0 mg/kg/injection, schedule: Q01DX009 (ip), vehicle: Klucel (hydroxypropylcellulose) (HPC) 93 % of control | [15] 96 % of control | [16] 88 % of control

CCOC(=O)CN=C(C)OCC
inactive: [7] 100 % of control | [8] 107 % of control | [9] 99 % of control | [10] 97 % of control | [11] 90 % of control | [12] 103 % of control

CCC(C)C(CN)(CCCN1CCOCC1)c1cccc2ccccc12 (stereo unspecified)
inactive: [8] 93 % of control | [10] 95 % of control | [12] 95 % of control

O=C1NC23CC=CCC12CCC3 (stereo unspecified)
inactive: [4] 100 % of control | [5] 93 % of control | [6] 109 % of control

CCOC(=O)c1cc2sccc2[nH]1
inactive: [8] 100 % of control | [10] 100 % of control | [12] 93 % of control

CCCCOC(=O)c1ccc(NC(=O)NCCC)cc1
inactive: [7] 90 % of control | [9] 88 % of control | [11] 95 % of control

NC1C2C3C=CC(C3)C12 (stereo unspecified)
inactive: dose: 100.0 mg/kg/injection, schedule: Q01DX009 (ip), vehicle: saline 107 % of control | dose: 200.0 mg/kg/injection, schedule: Q01DX009 (ip), vehicle: saline 100 % of control
